Source: patent US10501421B1, “Substituted benzimidazoles as modulators of Ras signaling” (VANDERBILT UNIVERSITY, priority 2017, dated 2019)
pEC50, pIC50, pKi: −log10 of the molar value. Counter-ions that a name gives are not always drawn. Like-named read-outs stand apart in the source and are kept apart here.

Experiments:
[1] = molecular target: Ras GEF SOS (Son of Sevenless) (Homo sapiens, UniProt Q07889); test: SOS-mediated nucleotide exchange on Ras (BODIPY-GDP fluorescence); type: biochemical; settings: SOS-mediated exchange of BODIPY-GDP for GTP on Ras
Method in brief: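 Ras loaded with BODIPY-GDP was mixed in buffer with test compound, then GTP and SOS. Fluorescence change from labeled GDP/GTP exchange was followed over time, and rates came from single-exponential fits. EC50 came from a four-parameter fit of mean rate against compound concentration.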

[2] = tested on: H727 lung cancer cell lines (G12V K-Ras mutation); test: Inhibition of cancer cell proliferation (CellTiter-Glo); type: cell-based; settings: Homo sapiens, NCI-H727, 72 h, read-out: Cell proliferation activity (H727 cancer cell line proliferation IC50)
Procedure: Compounds of the present invention were measured for their ability to kill H727 lung cancer cell lines, which contain a G12V K-Ras mutation. Cell proliferation experiments were conducted in 96-well plates. Cells were plated at 1000 cells/well, incubated overnight, followed by treatment with a dose range of compound for 3 days at 37° C. Cell proliferation was assessed using a CellTiter-Glo assay (Promega) according to the manufacturer's protocol. Data were normalized to DMSO control. IC50 values were determined using a four-parameter dose-response (variable slope) equation. These assays are performed in a manner analogous to the assay disclosed in: Burns, M. C.; Sun, Q.; Daniels, R. N.; Camper, D. V.; Kennedy, J. P.; Phan, J.; Olejniczak, E. O.; Lee, T.; Waterson, A. G.; Rossanese, O. W.; Fesik, S. W. “Approach for targeting Ras with small molecules that activate SOS-mediated nucleotide exchange” Proc. Natl. Acad. Sci. 2014; 11(9): 3401-3406. PMCID: PMC3948241.

Son of Sevenless (SOS) = molecular target: T1, Son of Sevenless (SOS) (Homo sapiens, UniProt Q07889); test: Binding to SOS, fluorescence polarization anisotropy (FPA) probe displacement; settings: displacement of FITC-conjugated probe (Example 285), affinity calculated from IC50
T1 sequence (Q07889 564-1049 limits assumed): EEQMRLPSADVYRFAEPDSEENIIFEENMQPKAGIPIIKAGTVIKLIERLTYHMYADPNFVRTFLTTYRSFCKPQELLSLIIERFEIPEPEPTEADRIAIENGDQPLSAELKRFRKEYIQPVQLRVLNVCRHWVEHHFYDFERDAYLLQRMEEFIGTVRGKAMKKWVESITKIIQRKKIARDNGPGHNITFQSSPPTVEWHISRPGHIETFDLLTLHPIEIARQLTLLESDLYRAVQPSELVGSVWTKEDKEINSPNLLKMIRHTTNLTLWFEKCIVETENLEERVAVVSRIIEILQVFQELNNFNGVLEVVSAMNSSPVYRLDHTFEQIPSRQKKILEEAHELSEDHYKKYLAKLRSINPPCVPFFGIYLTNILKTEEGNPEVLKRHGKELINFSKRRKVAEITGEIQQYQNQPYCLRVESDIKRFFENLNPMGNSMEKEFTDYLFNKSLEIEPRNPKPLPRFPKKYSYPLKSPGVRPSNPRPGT
Method in brief: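 A FITC-conjugated probe compound was incubated with SOS in buffer, and its displacement was tracked as a change in fluorescence anisotropy across a test-compound dose range. IC50 came from a four-parameter variable-slope fit, and binding affinity was calculated from it.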

[3] = H727 cells, 3 days treatment, CellTiter-Glo

Chain of Ras GEF SOS (Son of Sevenless) (P01112 1-166 partner limits assumed, one chain of several): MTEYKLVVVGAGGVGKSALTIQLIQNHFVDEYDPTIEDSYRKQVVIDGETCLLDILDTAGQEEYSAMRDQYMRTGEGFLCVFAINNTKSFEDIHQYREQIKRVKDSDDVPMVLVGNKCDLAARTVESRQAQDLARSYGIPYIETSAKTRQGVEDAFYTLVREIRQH

pIC50 [2, 3] | Compound | pEC50 [1] | pIC50 [2] | pKi (Son of Sevenless (SOS))
– | C=Cc1cc(Cn2c(N3CCNCC3)nc3cc(C)c(C)cc32)cc(C=C)c1F [Example 46, 1-(4-fluoro-3,5-divinylbenzyl)-5,6-dimethyl-2-(piperazin-1-yl)-1H-benzo[d]imidazole trifluoroacetate] | 4.52 to 5.30 | 5.30 to 6.00 | < 5.30
– | CCc1cc(Cn2c(N3CCNCC3)nc3cc(C)c(C)cc32)cc(Cl)c1F [Example 48, 1-(3-chloro-5-ethyl-4-fluorobenzyl)-5,6-dimethyl-2-(piperazin-1-yl)-1H-benzo[d]imidazole trifluoroacetate] | 5.30 to 6.00 | 5.30 to 6.00 | 5.30 to 6.00
– | CCc1cc(Cn2c(N3CCNCC3)nc3cc(C)c(C)cc32)cc(CC)c1F [Example 49, 1-(3,5-diethyl-4-fluorobenzyl)-5,6-dimethyl-2-(piperazin-1-yl)-1H-benzo[d]imidazole trifluoroacetate] | 5.30 to 6.00 | 5.30 to 6.00 | < 5.30
– | CCc1cc(Cn2c(N3CCNCC3)nc3cc(C)c(C)cc32)ccc1F [Example 50, 1-(3-ethyl-4-fluorobenzyl)-5,6-dimethyl-2-(piperazin-1-yl)-1H-benzo[d]imidazole trifluoroacetate] | 5.30 to 6.00 | 5.30 to 6.00 | < 5.30
– | Cc1cc2nc(N3CCNCC3)n(Cc3ccc(F)c(C4CC4)c3)c2cc1C [Example 51, 1-(3-cyclopropyl-4-fluorobenzyl)-5,6-dimethyl-2-(piperazin-1-yl)-1H-benzo[d]imidazole trifluoroacetate] | 4.52 to 5.30 | 5.30 to 6.00 | < 5.30
– | C=Cc1cc(Cn2c(N3CCNCC3)nc3cc(C)c(C)cc32)ccc1F [Example 52, 1-(4-fluoro-3-vinylbenzyl)-5,6-dimethyl-2-(piperazin-1-yl)-1H-benzo[d]imidazole trifluoroacetate] | 4.52 to 5.30 | < 4.70 | < 5.30
– | Fc1ccc(Cn2c(NCC3CNC3)nc3ccc(Cl)cc32)cc1Cl [Example 75, N-(azetidin-3-ylmethyl)-6-chloro-1-(3-chloro-4-fluorobenzyl)-1H-benzo[d]imidazol-2-amine trifluoroacetate] | 5.30 to 6.00 | 5.30 to 6.00 | 5.30 to 6.00
– | NCC1CN(c2nc3ccc(Cl)cc3n2Cc2ccc(F)c(Cl)c2)C1 [Example 76, (1-(6-chloro-1-(3-chloro-4-fluorobenzyl)-1H-benzo[d]imidazol-2-yl)azetidin-3-yl)methanamine trifluoroacetate] | > 6.00 | 5.30 to 6.00 | > 6.30
– | Fc1ccc(Cn2c(NC3CCNC3)nc3ccc(Cl)cc32)cc1Cl (stereo not drawn) [Example 77, 6-chloro-1-(3-chloro-4-fluorobenzyl)-N-(pyrrolidin-3-yl)-1H-benzo[d]imidazol-2-amine trifluoroacetate] | > 6.00 | 5.30 to 6.00 | 6.00 to 6.30
– | COc1ccccc1-c1cccc2c1nc(N1CCNCC1)n2Cc1ccc(F)c(Cl)c1 [Example 81, 1-(3-chloro-4-fluorobenzyl)-4-(2-methoxyphenyl)-2-(piperazin-1-yl)-1H-benzo[d]imidazole trifluoroacetate] | 5.30 to 6.00 | 4.70 to 5.30 | 6.00 to 6.30
4.70 to 5.30 | Fc1ccc(Cn2c(N3CCNCC3)nc3c(-c4cccnc4)cccc32)cc1Cl [Example 89, 1-(3-chloro-4-fluorobenzyl)-2-(piperazin-1-yl)-4-(pyridin-3-yl)-1H-benzo[d]imidazole] | 5.30 to 6.00 | – | 5.30 to 6.00
5.30 to 6.00 | Cc1cc(-c2cccc3c2nc(N2CCNCC2)n3Cc2ccc(F)c(Cl)c2)n(C)n1 [Example 93, 1-(3-chloro-4-fluorobenzyl)-4-(1,3-dimethyl-1H-pyrazol-5-yl)-2-(piperazin-1-yl)-1H-benzo[d]imidazole] | 5.30 to 6.00 | – | 5.30 to 6.00
5.30 to 6.00 | CC(C)c1ccccc1-c1cccc2c1nc(N1CCNCC1)n2Cc1ccc(F)c(Cl)c1 [Example 94, 1-(3-chloro-4-fluorobenzyl)-4-(2-isopropylphenyl)-2-(piperazin-1-yl)-1H-benzo[d]imidazole] | 5.30 to 6.00 | – | 5.30 to 6.00
– | Cc1cc2c(nc(N3CCNCC3)n2Cc2ccc(F)c(Cl)c2)c(-c2ccccc2)c1C [Example 104, 1-(3-chloro-4-fluorobenzyl)-5,6-dimethyl-4-phenyl-2-(piperazin-1-yl)-1H-benzo[d]imidazole trifluoroacetate] | 5.30 to 6.00 | 5.30 to 6.00 | 5.30 to 6.00
– | Cc1cc2c(nc(N3CCNCC3)n2Cc2ccc(Cl)cc2)c(-c2ccccc2Cl)c1C [Example 106, 1-(4-chlorobenzyl)-4-(2-chlorophenyl)-5,6-dimethyl-2-(piperazin-1-yl)-1H-benzo[d]imidazole trifluoroacetate] | 5.30 to 6.00 | 5.30 to 6.00 | 5.30 to 6.00
– | Cc1cc(Cn2c(N3CCNCC3)nc3c(C4NCCc5c4[nH]c4ccccc54)cc(Cl)cc32)cc(C)c1F (stereo not drawn) [Example 140, 1-(6-chloro-1-(4-fluoro-3,5-dimethylbenzyl)-2-(piperazin-1-yl)-1H-benzo[d]imidazol-4-yl)-2,3,4,9-tetrahydro-1H-pyrido[3,4-b]indole trifluoroacetate] | 5.30 to 6.00 | 5.30 to 6.00 | –
– | C=C[C@H](N)c1cc(Cl)cc2c1nc(N1CCNCC1)n2Cc1cc(C)c(F)c(C)c1 [Example 155, (S)-1-(6-chloro-1-(4-fluoro-3,5-dimethylbenzyl)-2-(piperazin-1-yl)-1H-benzo[d]imidazol-4-yl)prop-2-en-1-amine trifluoroacetate] | > 6.00 | > 6.00 | –
– | CC[C@H](N)c1cc(Cl)cc2c1nc(N1CCNCC1)n2Cc1cc(C)c(F)c(C)c1 [Example 157, (S)-1-(6-chloro-1-(4-fluoro-3,5-dimethylbenzyl)-2-(piperazin-1-yl)-1H-benzo[d]imidazol-4-yl)propan-1-amine trifluoroacetate] | > 6.00 | 5.30 to 6.00 | –
– | CC[C@H](N)c1cc(Cl)cc2c1nc(NCCN)n2Cc1cc(C)c(F)c(C)c1 [Example 158, (S)—N^1-(4-(1-aminopropyl)-6-chloro-1-(4-fluoro-3,5-dimethylbenzyl)-1H-benzo[d]imidazol-2-yl)ethane-1,2-diamine trifluoroacetate] | 5.30 to 6.00 | 4.70 to 5.30 | –
< 4.70 | Cc1cc(Cn2c(NCCN)nc3c(Cl)nccc32)ccc1F [Example 223, N^1-(4-chloro-1-(4-fluoro-3-methylbenzyl)-1H-imidazo[4,5-c]pyridin-2-yl)ethane-1,2-diamine] | 4.52 to 5.30 | – | –
5.30 to 6.00 | Cc1cc(Cn2c(N3CCNCC3)nc3ccc(OC(C)C(F)(F)F)nc32)ccc1F (stereo not drawn) [Example 258, 3-(4-fluoro-3-methylbenzyl)-2-(piperazin-1-yl)-5-((1,1,1-trifluoropropan-2-yl)oxy)-3H-imidazo[4,5-b]pyridine] | 4.52 to 5.30 | – | –
> 6.00 | Cc1cc(Cn2c(N3CCCC(N)C3)nc3ccc(OC(C)C(F)(F)F)nc32)ccc1F (stereo not drawn) [Example 261, 1-(3-(4-fluoro-3-methylbenzyl)-5-((1,1,1-trifluoroprpan-2-yl)oxy)-3H-imidazo[4,5-b]pyridin-2-yl)piperidin-3-amine] | 4.00 to 4.52 | – | –
4.70 to 5.30 | Cc1cc(Cn2c(N3CC(CN)C3)nc3ccc(OCCN(C)C)nc32)ccc1F [Example 262, 2-((2-(3-(aminomethyl)azetidin-1-yl)-3-(4-fluoro-3-methylbenzyl)-3H-imidazo[4,5-b]pyridin-5-yl)oxy)-N,N-dimethylethan-1-amine] | 4.00 to 4.52 | – | –
4.70 to 5.30 | Cc1cc(Cn2c(NCC3CNC3)nc3ccc(OCCN(C)C)nc32)ccc1F [Example 263, N-(azetidin-3-ylmethyl)-5-(2-(dimethylamino)ethoxy)-3-(4-fluoro-3-methylbenzyl)-3H-imidazo[4,5-b]pyridin-2-amine] | 4.00 to 4.52 | – | –
